The first assay deals with T1, Human-Renin (Homo sapiens, UniProt P00797).
T1 sequence (P00797 67-406): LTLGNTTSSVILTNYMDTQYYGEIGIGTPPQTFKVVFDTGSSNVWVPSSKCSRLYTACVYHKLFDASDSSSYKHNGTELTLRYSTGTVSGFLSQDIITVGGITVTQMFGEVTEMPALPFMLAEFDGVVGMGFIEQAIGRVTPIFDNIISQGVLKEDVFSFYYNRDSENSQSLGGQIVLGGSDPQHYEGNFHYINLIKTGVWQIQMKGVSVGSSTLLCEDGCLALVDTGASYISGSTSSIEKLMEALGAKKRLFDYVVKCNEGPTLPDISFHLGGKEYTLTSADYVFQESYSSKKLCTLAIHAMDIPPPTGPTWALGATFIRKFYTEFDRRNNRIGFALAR
Kind of assay: In vitro test with pure human renin (angiotensin I production from human tetradecapeptide renin substrate, measured by RIA). It counts as biochemical.
Settings: not given
As for the experimental part:
In vitro-Test mit reinem Human-Renin
Der Test wird in Eppendorf Röhrchen durchgeführt. Die Inkubationsmischung besteht aus (1) 100 µl Human-Renin in Puffer A (0,1M Natriumphosphatlösung, pH 7,4, enthaltend 0,1% Rinderserumalbumin, 0,1 % Natriumazid und 1 mM Aethylendiamintetraessigsäure), genügend für eine Renin-Aktivität von 2-3 ng Angiotensin I/ ml/Std.; (2) 145 µl Puffer A; (3) 30 µl von 10 µM humanem Tetradekapeptid-Reninsubstrat (hTD) in 10 mM Salzsäure; (4) 15 µl Dimethylsulfoxid mit bzw. ohne Hemmer und (5) 10 µl einer 0,03 molaren Lösung von Hydroxychinolinsulfat in Wasser.
Die Proben werden drei Stunden bei 37°C bzw. 4°C in Triplikaten inkubiert. 2 x 100 µl Proben pro Versuchsröhrchen werden dann verwendet, um die Produktion von Angiotensin I via RIA (standard radioimmunoassay; Clinical Assay solid phase kit) zu messen. Kreuzreaktivitäten der verwendeten Antikörper im RIA sind: Angiotensin I 100 %; Angiotensin II 0,0013 %; hTD (Angiotensin I-Val-Ile-His-Ser-OH) 0,09 %. Die Produktion von Angiotensin I wird durch die Differenz zwischen dem Versuch bei 37°C und demjenigen bei 4°C bestimmt.
Folgende Kontrollen werden mitgeführt: • (a) Inkubation von hTD-Proben ohne Renin und ohne Hemmer bei 37°C und 4°C. Die Differenz zwischen diesen beiden Werten ergibt den Grundwert der Angiotensin I-Produktion. • (b) Inkubation von hTD-Proben mit Renin, jedoch ohne Hemmer bei 37°C und 4°C. Die Differenz zwischen diesen Werten ergibt den Maximalwert der Angiotensin I-Produktion.
In jeder Probe wird von der ermittelten Angiotensin I-Produktion der Grundwert der Angiotensin I-Produktion abgezogen. Die Differenz zwischen dem Maximalwert und dem Grundwert ergibt den Wert der maximalen Substrathydrolyse (=100%) durch Renin.
Die Resultate werden als IC₅₀-Werte angegeben, welche diejenige Konzentration des Hemmers bezeichnen, bei welcher die enzymatische Aktivität um 50% gehemmt wird. Die IC₅₀-Werte werden aus einer linearen Regressionskurve aus einem logit-log plot ermittelt.
`CC(C)(C)OC(=O)N1CCC[C@@H]1C(=O)N[C@@H](Cc1ccccc1)C(=O)N[C@@H](Cc1c[nH]cn1)C(=O)N[C@@H](CC1CCCCC1)C(O)CC1CCCCC1` (single isomer, unassigned) [F]: the IC50 came to 1 nM.

The same assay, now with this note: pure human renin, substrate hTD, pH 7,4, incubation 3 h at 37°C vs 4°C, angiotensin I by RIA; IC50 from logit-log plot; read-out: IC₅₀-Werte.
As to `CCC(F)(CC)C[C@H](O)[C@H](CC1CCCCC1)NC(=O)[C@H](Cc1c[nH]cn1)NC(=O)[C@@H](CC(=O)C(C)(C)C)Cc1ccccc1` [G, (S)-N-[(1S,2S)-1-(Cyclohexylmethyl)-4-äthyl-4-fluor-2-hydroxyhexyl]-α-[(R)-α-(3,3-dimethyl-2-oxobutyl)hydrocinnamamido]imidazol-4-propionamid], the IC50 worked out at 5 nM.

With `C=C[C@H](CC)C[C@H](O)[C@H](CC1CCCCC1)NC(=O)[C@H](Cc1cnc[nH]1)NC(=O)[C@H](Cc1ccccc1)CS(=O)(=O)C(C)(C)C` [D, (S)-α-[(S)-α-[(t-Butylsulfonyl)methyl]hydrocinnamamido]-N-[(1S,2S,4R)-1-(cyclohexylmethyl)-4-äthyl-2-hydroxy-5-hexenyl]imidazol-5-propionamid], the IC50 is 1 nM.

As for `CCC(CC)C[C@H](O)[C@H](CC1CCCCC1)NC(=O)[C@H](Cc1c[nH]cn1)NC(=O)[C@H](Cc1ccccc1)NC(=O)[C@H]1CCCN1C(=O)OC(C)(C)C` [B, t-Butyl (R)-2-[[(S)-α-[[(S)-1-[[(1S,2S)-1-(cyclohexylmethyl)-2-hydroxy-4-äthylhexyl]carbamoyl]-2-imidazol-4-yläthyl]carbamoyl]phenäthyl]carbamoyl]-1-pyrrolidincarboxylat], the IC50 was 1 nM.

Consider `CC(C)(C)OC(=O)N[C@@H](Cc1ccccc1)C(=O)N[C@@H](Cc1c[nH]cn1)C(=O)N[C@@H](CC1CCCCC1)C(O)CC1CCCCC1` (single isomer, unassigned) [E], for which the IC50 turned out to be 2.6 nM.

Turning to `C=C[C@H](CC)C[C@H](O)[C@H](CC1CCCCC1)NC(=O)[C@H](Cc1c[nH]cn1)NC(=O)[C@@H](CC(=O)C(C)(C)C)Cc1ccccc1` [C, (S)-N-[(1S,2S,4R)-1-(Cyclohexylmethyl)-4-äthyl-2-hydroxy-5-hexenyl]-α-[(R)-α-(3,3-dimethyl-2-oxobutyl)hydrocinnamamido]imidazol-4-propionamid], the IC50 is 4.2 nM.

For the compound `C=C[C@H](CC)C[C@H](O)[C@H](CC1CCCCC1)NC(=O)[C@H](Cc1c[nH]cn1)NC(=O)[C@H](Cc1ccccc1)NC(=O)[C@H]1CCCN1C(=O)OC(C)(C)C` [A, t-Butyl (R)-2-[[(S)-α-[[(S)-1-[[(1S,2S,4R)-1-(cyclohexylmethyl)-2-hydroxy-4-äthyl-5-hexenyl]carbamoyl]-2-imidazol-4-yläthyl]carbamoyl]phenäthyl]carbamoyl]-1-pyrrolidincarboxylat], the IC50 came out at 0.2 nM.
